# From PubChem BioAssay (NCI)
#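 Test compounds were applied to cells in 96-well plates for 48 hours at 5 doses. GI50 is the concentration that inhibits growth by half. TGI marks complete inhibition of growth.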
# Experiments:
# Assay in all cases: NCI anticancer screen, dose series, 48 h
# 786-0 renal = system: 786-0 renal
# A498 renal = system: A498 renal
# A549 NSCLC = system: A549 NSCLC
# ACHN renal = system: ACHN renal
# BT-549 breast = system: BT-549 breast
# CAKI-1 renal = system: CAKI-1 renal
# COLO 205 colon = system: COLO 205 colon
# DU-145 prostate = system: DU-145 prostate
# HCC-2998 colon = system: HCC-2998 colon
# HCT-116 colon = system: HCT-116 colon
# HCT-15 colon = system: HCT-15 colon
# HL-60(TB) leukemia = system: HL-60(TB) leukemia
# HOP-62 NSCLC = system: HOP-62 NSCLC
# HOP-92 NSCLC = system: HOP-92 NSCLC
# HS 578T breast = system: HS 578T breast
# HT29 colon = system: HT29 colon
# IGROV1 ovarian = system: IGROV1 ovarian
# K-562 leukemia = system: K-562 leukemia
# KM12 colon = system: KM12 colon
# LOX IMVI melanoma = system: LOX IMVI melanoma
# M14 melanoma = system: M14 melanoma
# MALME-3M melanoma = system: MALME-3M melanoma
# MCF7 breast = system: MCF7 breast
# MDA-MB-231 breast = system: MDA-MB-231 breast
# MDA-MB-435 = system: MDA-MB-435
# MOLT-4 leukemia = system: MOLT-4 leukemia
# NCI-H226 lung = system: NCI-H226 lung
# NCI-H23 lung = system: NCI-H23 lung
compound,measurement,setting,value
OCc1cc2ccccc2c2c3c(ccc12)OCO3,GI50,786-0 renal,42.3 µM
same,TGI,786-0 renal,203 µM
same,GI50,A498 renal,13.1 µM
same,TGI,A498 renal,39.5 µM
same,GI50,A549 NSCLC,30.3 µM
same,TGI,A549 NSCLC,126 µM
same,GI50,ACHN renal,32.1 µM
same,TGI,ACHN renal,141 µM
same,GI50,BT-549 breast,27.1 µM
same,TGI,BT-549 breast,76.3 µM
same,GI50,CAKI-1 renal,29.3 µM
same,TGI,CAKI-1 renal,188 µM
same,GI50,COLO 205 colon,18.8 µM
same,TGI,COLO 205 colon,37.4 µM
same,GI50,DU-145 prostate,44 µM
same,TGI,DU-145 prostate,170 µM
same,GI50,HCC-2998 colon,37.8 µM
same,TGI,HCC-2998 colon,232 µM
same,GI50,HCT-116 colon,30.6 µM
same,TGI,HCT-116 colon,149 µM
same,GI50,HCT-15 colon,32.5 µM
same,GI50,HL-60(TB) leukemia,23.7 µM
same,TGI,HL-60(TB) leukemia,66.2 µM
same,GI50,HOP-62 NSCLC,31.6 µM
same,TGI,HOP-62 NSCLC,131 µM
same,GI50,HOP-92 NSCLC,14.7 µM
same,TGI,HOP-92 NSCLC,58.2 µM
same,GI50,HS 578T breast,29.8 µM
same,TGI,HS 578T breast,144 µM
same,GI50,HT29 colon,27.5 µM
same,TGI,HT29 colon,78.6 µM
same,GI50,IGROV1 ovarian,33.6 µM
same,TGI,IGROV1 ovarian,111 µM
same,GI50,K-562 leukemia,40 µM
same,GI50,KM12 colon,35 µM
same,TGI,KM12 colon,137 µM
same,GI50,LOX IMVI melanoma,35.7 µM
same,TGI,LOX IMVI melanoma,118 µM
same,GI50,M14 melanoma,41.2 µM
same,TGI,M14 melanoma,169 µM
same,GI50,MALME-3M melanoma,48.1 µM
same,TGI,MALME-3M melanoma,209 µM
same,GI50,MCF7 breast,26.5 µM
same,TGI,MCF7 breast,125 µM
same,GI50,MDA-MB-231 breast,29.1 µM
same,TGI,MDA-MB-231 breast,175 µM
same,GI50,MDA-MB-435,39.3 µM
same,TGI,MDA-MB-435,160 µM
same,GI50,MOLT-4 leukemia,28.5 µM
same,TGI,MOLT-4 leukemia,82.3 µM
same,GI50,NCI-H226 lung,23.7 µM
same,TGI,NCI-H226 lung,163 µM
same,GI50,NCI-H23 lung,34.1 µM
